Source: patent US20010029347A1, “Transdermal administrating device” (POLYTRONICS, LTD., priority 2000, published 2001)

Tests used:
[1] = set-up: species or system HWY hairless rats; conditions: HWY hairless, rat, in vivo
Description: Transdermal administrating devices were attached on the back of each body of HWY hairless rats. A number of the rats were three a group. The concentration of L-ascorbic acid in blood was chemically detected to control the drug concentration in the blood [M^−]. The procedure thereof is described hereunder.
First, a calibration line was prepared. The EB was set at 1.5 V and the transdermal administrating device was attached on the back of each of the test rats.
In addition, blood examination for the rats was performed at those times. From the blood examination, the concentration of ascorbic acid in blood [M^−] was determined.
Next, using the calibration line shown in FIG. 5, the concentration of ascorbic acid in blood [M^−] was promptly converged to a constant value.
According to the indication from the CPU 6, the bias DC power supply 7 was operated to set EB=8V.
When the concentration of ascorbic acid in blood [M^−] should be maintained at a constant value, for example, at 5 (arb. unit) in FIG. 5, the Rd0 should be 6.3 kΩ (kilo ohm) based on the calibration line shown in FIG. 5.
In this case, when the Rd was determined, the EB was temporarily changed to 1.5 V and the voltage drop Vi at the external load was measured.
At the measurement after the current flowing time has elapsed for 20 minutes, the Rd was lower than the Rd0. The CPU 6 operated to feed back the bias voltage to reduce the bias voltage EB.

[2] = Concentration of Polyoxomethalate ion in blood of nude mouse during iontophoresis with transdermal administrating device V (Example 5, no bias power supply); format: in vivo
Description: When the transdermal administrating device V according to Example 5 was loaded on the back of a nude mouse, the chemical cell formed by the active electrode 22 and the inert electrode 24 generated an electromotive force of about 2.9V.
Removing the variable resistor 31 out of the circuit, the measurement and arithmetic operation for Rd and the measurement of the blood concentration in blood [M^−] were performed to prepare a calibration line representing the relationship between the Rd and the [M^−].
Next, a Rd0 value corresponding to a target concentration [M^−]0 was determined from the calibration line and the variable resistor […] was connected to the circuit.
The concentration of drug was controlled by controlling the value of the variable resistor 31 with measuring the Rd at varying times.

| concentration of ascorbic acid in blood [M-], overshoot value [1] | time after the beginning of flowing a current to converge to constant blood concentration [1] | concentration of ascorbic acid in blood [M-], converged constant value ([1]; 1.5 hours) [arb. unit] | time after the beginning of flowing a current from which blood concentration [M-] is kept at the target concentration ([2]; control by variable resistor, no bias DC power supply) | permeability (iontophoresis through skin) ([2]; without bias DC power supply) | Molecule |
| --- | --- | --- | --- | --- | --- |
| about 6.5 arb. unit | about 1.5 hours | ~5 |  |  | O=C1O[C@H]([C@@H](O)CO)C(O)=C1O [ascorbic acid, L-ascorbic acid] |
|  |  |  | about 2 hours | high permeability | K5[SiVW11O40] [Polyoxomethalate ion] |
